Measured values reported in patent publication US20250387406A1, “THERAPY FOR REDUCED OTOTOXICITY FROM CHEMOTHERAPEUTIC AGENT WITH PENTAAZA MACROCYCLIC RING COMPLEX” (GALERA LABS, LLC, priority 2022, published 2025).

Experiments:
rat [1] = conditions: Salvemini et al. 1999; cited from earlier work
adult mice = conditions: lethal total body irradiation, Thompson et al. 2010; cited from earlier work
hamster = hamster oral mucositis, Murphy et al. 2008; cited from earlier work
[2] = system: rats subjected to an experimental model of colitis; conditions: rat colitis model, Cuzzocrea et al. 2001; cited from earlier work
rat [3] = conditions: Salvemini et al. 2001; cited from earlier work
[4] = system: PARP (poly (ADP ribosyl) polymerase); experiment: PARP activation in H1299CAT cells with doxycycline induction of CAT overexpression; assay type: cell-based, human; conditions: CAT induced with doxycycline
Excerpt: When treated with doxcycline, H1299CAT cells express greater levels of human catalase (CAT) than the “parent” cells, H1299 (wild type), eliminating all or part of the H2O2 generated from superoxide by GC4419 or other Mn pentaaza macrocyclic dismutase mimetics.

[5] = system: athymic female Nu/Nu (nude) mice; experiment: Cisplatin-induced hematotoxicity in SQ20B tumor-bearing nude mice; assay type: in vivo, mouse
Procedure: 7 week old athymic female Nu/Nu (nude) mice were implanted in a hind leg with SQ20B human head and neck squamous cell carcinoma cells. […] Mice were assessed for blood counts by tail vein blood collection either 2 days or 2 weeks after the treatment period.

CBA/CaJ mice = experiment: In vivo multicycle mouse model of cisplatin toxicity; conditions: 10 mg/kg GC4419 1 hour prior to 3.0 mg/kg cisplatin IP
H460 cells [6] = experiment: Hydrogen peroxide, PO-1 probe, H460; assay type: cell-based, human
H1299 (wild type) cells [7] = experiment: Total reactive oxygen species, CellROX probe, flow cytometer, H1299; assay type: cell-based, human
Procedure: (§1) After the treatments and incubations CellROX fluorogenic probes for total ROS were added for 30 minutes continued incubation and the CellROX signal was measured using a flow cytometer.

[8] = system: H460 human non-small cell lung carcinoma (NSCLC) cells; experiment: Survival of H460 cells in culture with GC4419 and cisplatin; assay type: cell-based; design: dose or concentration left out as unconfirmed; conditions: GC4419 added to indicated concentrations of cisplatin, 120 hrs, vs cisplatin alone
Procedure: After 120 hrs the surviving fraction of cells was determined.

rat [9] = conditions: rat model, Tuder et al. 2003; cited from earlier work
H1299 (wild type) cells [10] = experiment: Mitochondrial superoxide, MitoSOX probe, flow cytometer, H1299; assay type: cell-based, human
[11] = system: PARP (poly (ADP ribosyl) polymerase); experiment: PARP activation in H460 cells (Western blot, 89 kd active/116 kd inactive form); assay type: cell-based, human
Excerpt: PARP is a nuclear enzyme involved in DNA repair of single strand breaks and is activated following cell stress including chemotherapy and irradiation.

[12] = system: H1299 human NSCLC cells, modified to inducibly overexpress catalase (H1299CAT); experiment: Survival of H1299CAT cells with GC4419, cisplatin and catalase overexpression; assay type: cell-based; design: dose or concentration left out as unconfirmed; conditions: GC4419 added to cisplatin, 120 hours
Excerpt: CAT overexpression in this line (H1299CAT) was induced by administration of doxycycline, which turned on transcription of the inserted catalase genes.

[13] = system: head-and-neck cancer patients; conditions: patients undergoing chemoradiation therapy, Anderson 2015; cited from earlier work
[14] = system: hair cells in mouse cochlea cultures; experiment: Cochlear organotypic cultures with cisplatin, hair cell number; assay type: cell-based
Procedure: Cochlear organotypic cultures. C57BL/10J mice were decapitated on postnatal day 2 or 3. The stria vascularis and spiral ligament was removed and the organ of Corti and spiral ganglion neurons from the middle turn of the cochlea dissected out. The middle turn of the cochlea was placed in a collagen matrix and 1 ml of serum-free BME plus serum free supplement, 1% bovine serum albumin, 2 mM glutamine, 5 mg/ml glucose, and 10 U/ml penicillin on a collagen pre-prepared culture dish. The cochlear explants were incubated at 4% O2, 37° C. in 5% CO2 for 2 h. […] After 24 hours the cultures were fixed for 4 h in 4% paraformaldehyde as previously described (see, e.g., McFadden et al., Toxicol Appl Pharmacol. 2003; 186(1):46-54) and immersed in rhodamine-labeled phalloidin in PBS for 30 min. […] Tissues were examined histologically for inner and outer hair cell organization and number as previously described. Dihydroethidium (DHE) was used to measure oxidative stress. […] The cochlear specimens were incubated with 1 μm DHE for 30 min at 37° C. and then fluorescent images obtained with a confocal laser microscope as previously described (see, e.g., Fetoni et al., The Journal of neuroscience: the official journal of the Society for Neuroscience. 2013; 33(9):4011-23).

head and neck patients = conditions: concurrent chemoradiotherapy; cited from earlier work
Male C57BL/6J mice = experiment: Cisplatin-induced acute kidney injury (AKI) model in mice; assay type: in vivo, mouse
Excerpt: 4 month old male C57BL/6J mice (young) were purchased from Jackson Laboratories and 18 month old mice (old) were obtained as collaboration with Dr. Amy Sindler (University of Iowa) from the National institute of Aging. All mice were maintained in accordance with ACURF approval #4121235 at the University of Iowa Animal Care facility. Mice were maintained on normal diets and water ad libitum through the course of the experiment.
Animals were weighed every other day following the start of treatment with GC4419.

H460 cells [15] = experiment: Mitochondrial superoxide, MitoSOX probe, flow cytometer, H460; assay type: cell-based, human
[16] = system: PARP (poly (ADP ribosyl) polymerase); experiment: PARP activation in H1299 (wild type) cells (Western blot); assay type: cell-based, human
H1299 (wild type) cells [17] = experiment: Hydrogen peroxide, PO-1 probe, H1299; assay type: cell-based, human
[18] = system: hair cells in mouse cochlea cultures; experiment: Mouse cochlea cultures with paclitaxel, hair cell number; assay type: cell-based; conditions: 2 μM GC4419 for 48 or 72 hours (24 hour pre-treatment) with paclitaxel 0.1 μM and 1 μM
Procedure: Pups from C57BL/B16 pregnant female mice were decapitated on postnatal day 3. The stria vascularis and spiral ligament were removed, and the cochlea dissected out. The cochlea was placed in 400 ul of DMEM 5% FBS on a collagen pre-prepared culture dish and incubated at 4% O2, 37° C. in 5% CO2 for 24 hours. The medium was then exchanged with new medium that contained paclitaxel 0, 100 nM, and 1 μM, with and without 2 μM GC4419 for 48 hours, or pretreated for 24 hours with 2 μM GC4419 followed by paclitaxel treatment. The explants were then fixed for 1 hour in 4% paraformaldehyde. Specimens were stained with anti-myosin-VIIa antibody. Specimens were mounted and examined under a fluorescence microscope and hair cells counted using the image analysis software Imaris.

H460 cells [19] = experiment: Total reactive oxygen species, CellROX probe, flow cytometer, H460; assay type: cell-based, human
Procedure: as §1

[20] = system: hair cells of the cochlea; conditions: cited from earlier work
patients = conditions: human, in vivo; cited from earlier work
[21] = 10 mg/kg GC4419 + cisplatin + IR
[22] = 10 mg/kg GC4419 + cisplatin + IR, 2 days and 2 weeks after end of treatment
[23] = H460, GC4419 added to cisplatin or cisplatin plus IR
[24] = H1299, GC4419 added to cisplatin or cisplatin plus IR
[25] = 10 mg/kg GC4419 daily + cisplatin
[26] = 10 mg/kg GC4419 daily from 4 days prior to 10 mg/kg cisplatin until euthanasia
[27] = H460, cisplatin or cisplatin plus IR
[28] = H1299, cisplatin or cisplatin plus IR

[Cl-].[Cl-].[Mn+2].c1cc2nc(c1)CN[C@@H]1CCCC[C@H]1NCCN[C@@H]1CCCC[C@H]1NC2 [GC4403]
inflammation (rat [1]): inhibit inflammation | radiation damage (adult mice): attenuate the radiation damage | radiation damage (hamster): attenuate the radiation damage | injury to the colon [2]: very significantly reduce the injury to the colon | joint disease (rat [3]): prevent joint disease

[Cl][Mn][Cl].c1cc2nc(c1)CN[C@H]1CCCC[C@@H]1NCCN[C@H]1CCCC[C@@H]1NC2 [GC4419]
PARP activation response to cisplatin ([4]; 24 M GC4419 + 1 M cisplatin, 24 hours (p<0.01, FIG. 6B)): significantly (p<0.05) reduced the PARP activation response | PARP activation response to IR+cisplatin ([4]; 24 M GC4419 + 6 Gy IR + 1 M cisplatin, 24 hours (p<0.001, FIG. 6C)): significantly (p<0.05) reduced the PARP activation response | PARP activation response to IR ([4]; 24 M GC4419 + 6 Gy IR, 24 hours (p<0.05, FIG. 6C)): significantly (p<0.05) reduced the PARP activation response | eosinophil percentage [5, 21]: maintained eosinophil percentage at apparently normal levels | neutrophil percentage [5, 21]: maintained neutrophil percentage at apparently normal levels | leukocyte (WBC) count [5, 22]: stimulated leukocyte (WBC) | lymphocyte subset [5, 22]: proportionally lymphocyte subset production | platelets ([5]; 10 mg/kg GC4419 every day + cisplatin + IR, two days after end of treatments): significantly restored platelet levels | weight loss (FIG. 14) (CBA/CaJ mice): reduced the amount of weight loss caused by cisplatin | H2O2 (PO-1 probe) (H460 cells [6]; [23]): significantly further increases the increase in H2O2 | basal levels of H2O2 (PO-1 probe) (H460 cells [6]; H460, GC4419 alone): significantly increases both the basal levels of H2O2 | total ROS (CellROX signal) (H1299 (wild type) cells [7]; H1299, 24 M GC4419 used alone): little effect on total ROS | total ROS (CellROX signal) (H1299 (wild type) cells [7]; H1299, GC4419 added to cisplatin therapy): synergistic effect on total ROS | surviving fraction of cells [8]: decreased the surviving fraction | VEGFr inhibitor-induced pulmonary disease (rat [9]): attenuate VEGFr inhibitor-induced pulmonary disease | mitochondrial superoxide (MitoSOX signal) (H1299 (wild type) cells [10]; [24]): significantly reduced the increase in mitochondrial superoxide | basal levels of mitochondrial superoxide (MitoSOX signal) (H1299 (wild type) cells [10]; H1299, GC4419 alone): significantly reduced the basal levels of mitochondrial superoxide | PARP activity (ratio 89 kd active to 116 kd inactive form) ([11]; 24 μM GC4419 added to 6 Gy IR + 1 μM cisplatin, 24 hr): significantly increased (p<0.01) | PARP activity (ratio 89 kd active to 116 kd inactive form) ([11]; 24 μM GC4419 added to 6 Gy IR, 24 hr, vs radiation alone): significantly increased PARP activity | PARP activity (ratio 89 kd active to 116 kd inactive form) ([11]; 24 M GC4419 added to 1 M cisplatin, 24 hours, vs cisplatin): further and significantly (p<0.01) increased PARP activity | surviving fraction of cells ([12]; with CAT overexpression (doxycycline)): abrogated the GC4419 contribution to cisplatin response | surviving fraction of cells ([12]; without CAT overexpression (wt), vs cisplatin alone): decreased the surviving fraction | oral mucositis [13]: reduce oral mucositis | number of hair cells (FIG. 12A) ([14]; GC4419 0.5, 2 or 4 μM with cisplatin, 24 h): dose-dependent protection against hair cell damage | hair cell damage, microscopy images (FIG. 12B) ([14]; GC4419 with cisplatin): reduced damage to the hair cells caused by cisplatin and preserved the number of hair cells | incidence of chronic kidney disease (head and neck patients): significantly decrease the incidence of chronic kidney disease | kidney injury molecule 1 (KIM1) biomarker (Male C57BL/6J mice; [25]): prevented that injury | neutrophil gelatinase-associated lipocalin (NGAL) biomarker (Male C57BL/6J mice; [25]): prevented that injury | survival (Male C57BL/6J mice; 10 mg/kg GC4419 daily + cisplatin, old mice): prevented cisplatin mortality | weight loss (Male C57BL/6J mice; 10 mg/kg GC4419 daily + cisplatin, young and old mice): reduced the amount of weight loss | creatinine level (Male C57BL/6J mice; [26]): completely prevented these increases in BUN and creatinine | whole blood urea nitrogen (BUN) level (Male C57BL/6J mice; [26]): completely prevented these increases in BUN and creatinine | mitochondrial superoxide (MitoSOX signal) (H460 cells [15]; [23]): significantly reduced the increase in mitochondrial superoxide | basal levels of mitochondrial superoxide (MitoSOX signal) (H460 cells [15]; H460, GC4419 alone): significantly reduced the basal levels of mitochondrial superoxide | PARP activity (ratio 89 kd active to 116 kd inactive form) ([16]; 24 μM GC4419 added to 10 μM cisplatin, 24 hr, vs cisplatin): further and significantly p<0.01) increased PARP activity | PARP activity (ratio 89 kd active to 116 kd inactive form) ([16]; 24 M GC4419 added to 6 Gy IR + 1 M cisplatin, 24 hours): significantly increased (p<0.0.05) | PARP activity (ratio 89 kd active to 116 kd inactive form) ([16]; 24 M GC4419 added to 6 Gy IR, 24 hours, vs radiation alone): significantly increased PARP activity | H2O2 (PO-1 probe) (H1299 (wild type) cells [17]; [24]): significantly further increases the increase in H2O2 | basal levels of H2O2 (PO-1 probe) (H1299 (wild type) cells [17]; H1299, GC4419 alone): significantly increases both the basal levels of H2O2 | number of hair cells (FIG. 15) [18]: protective effect of GC4419 on the hair cells | total ROS (CellROX signal) (H460 cells [19]; H460, 24 M GC4419 used alone): little effect on total ROS | total ROS (CellROX signal) (H460 cells [19]; H460, GC4419 added to cisplatin therapy): synergistic effect on total ROS

N.N.[Cl][Pt][Cl] [cisplatin, reference compound]
H2O2 (PO-1 probe) (H460 cells [6]; [27]): increase in H2O2 | total ROS (CellROX signal) (H1299 (wild type) cells [7]; H1299, 1 M cisplatin or cisplatin plus 6 Gy IR): increased total ROS | mitochondrial superoxide (MitoSOX signal) (H1299 (wild type) cells [10]; [28]): increase in mitochondrial superoxide | damage to inner hair cells (IHCs) [20]: sparing of inner hair cells (IHCs) | damage to outer hair cells (OHCs) [20]: profoundly damages outer hair cells (OHCs) | mitochondrial superoxide (MitoSOX signal) (H460 cells [15]; [27]): increase in mitochondrial superoxide | H2O2 (PO-1 probe) (H1299 (wild type) cells [17]; [28]): increase in H2O2 | mean cHL (patients): 36 dB | total ROS (CellROX signal) (H460 cells [19]; H460, 1 M cisplatin or cisplatin plus 6 Gy IR): increased total ROS
